Measurements taken from US20250009896A1, “SUPR[…] BASED VIRAL […] CAPTURE FOR PREVENTION AND THERAPY OF VIRAL INFECTION” (The Johns Hopkins University, priority 2023, published 2025).
Residues, ends and D or L forms follow the SMILES beside them. *: point of attachment. Lauroyl = CCCCCCCCCCCC(=O)*

Key:
[1] = Critical micelle concentration by Nile Red assay; type: physicochemical; conditions: MilliQ water pH=7.4, Nile Red assay
Procedure: Using a Nile Red assay, the CMC of each PA monomer (Filler and Ligand) and their co-assembly (1:1 molar ratio) was determined. Nile Red dye intensely fluoresces within hydrophobic environments but is strongly quenched and red-shifted in aqueous environments. Thus, when mixed with PAs at a concentration exceeding the CMC, Nile Red will embed within the hydrophobic core and emit a strong fluorescence signal. A 500 μM stock solution of Nile Red was prepared in acetone, and 10 μL of the stock was added to microcentrifuge tubes. Acetone was evaporated off in the dark. Solutions of the samples (500 μL, water) were added to the tubes at varied concentrations and were aged for 2 days in the dark at room temperature. Samples were added to a quartz micro fluorometer cell (0.7 mL, 10 mm pathlength, Starna Cells, Atascadero, CA), and at an excitation wavelength of 550 nm, five parallel emission spectra were recorded at a wavelength range of 580 to 720 nm on a Duetta UV-Vis-NIR spectrofluorometer (HORIBA Scientific). The emission intensity ratio for each run at 635 nm (emission maximum of Nile Red in a hydrophobic environment) to 660 nm (emission maximum of Nile Red in a hydrophilic environment) was plotted against tested concentrations to obtain a transition curve from which CMC was determined.

[2] = biological target: Recombinant human angiotensin-converting enzyme 2 (ACE2) (Homo sapiens, UniProt Q9BYF1); experiment: ACE2 activity assay with fluorogenic peptide substrate Mca-YVADAPK(Dnp)-OH; conditions: 50 nM ACE2; 1 mM Filler or 50 μM Ligand
Sequence of Recombinant human angiotensin-converting enzyme 2 (ACE2) (Q9BYF1 18-740): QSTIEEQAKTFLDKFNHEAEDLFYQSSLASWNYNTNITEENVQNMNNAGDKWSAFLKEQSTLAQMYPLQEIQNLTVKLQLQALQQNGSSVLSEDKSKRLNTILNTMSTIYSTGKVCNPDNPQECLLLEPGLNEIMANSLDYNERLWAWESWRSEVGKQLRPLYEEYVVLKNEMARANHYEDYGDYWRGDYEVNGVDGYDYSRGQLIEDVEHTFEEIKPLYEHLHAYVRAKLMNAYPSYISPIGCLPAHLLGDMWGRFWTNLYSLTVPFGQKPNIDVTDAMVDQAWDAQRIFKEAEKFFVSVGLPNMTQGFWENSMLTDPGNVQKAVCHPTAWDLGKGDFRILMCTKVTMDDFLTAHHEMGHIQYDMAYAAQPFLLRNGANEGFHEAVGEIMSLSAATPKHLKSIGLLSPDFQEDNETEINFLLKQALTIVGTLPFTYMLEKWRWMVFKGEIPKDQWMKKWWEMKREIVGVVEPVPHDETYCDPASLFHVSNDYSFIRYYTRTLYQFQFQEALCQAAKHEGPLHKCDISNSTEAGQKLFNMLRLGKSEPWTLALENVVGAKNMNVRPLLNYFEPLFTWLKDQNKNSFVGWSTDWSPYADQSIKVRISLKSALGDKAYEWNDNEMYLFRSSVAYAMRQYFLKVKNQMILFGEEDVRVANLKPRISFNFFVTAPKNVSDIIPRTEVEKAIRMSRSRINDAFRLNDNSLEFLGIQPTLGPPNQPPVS

ACE2 [3] = biological target: T1, ACE2 (Homo sapiens, UniProt Q9BYF1); conditions: cited from earlier work
T1 sequence (Q9BYF1 18-805): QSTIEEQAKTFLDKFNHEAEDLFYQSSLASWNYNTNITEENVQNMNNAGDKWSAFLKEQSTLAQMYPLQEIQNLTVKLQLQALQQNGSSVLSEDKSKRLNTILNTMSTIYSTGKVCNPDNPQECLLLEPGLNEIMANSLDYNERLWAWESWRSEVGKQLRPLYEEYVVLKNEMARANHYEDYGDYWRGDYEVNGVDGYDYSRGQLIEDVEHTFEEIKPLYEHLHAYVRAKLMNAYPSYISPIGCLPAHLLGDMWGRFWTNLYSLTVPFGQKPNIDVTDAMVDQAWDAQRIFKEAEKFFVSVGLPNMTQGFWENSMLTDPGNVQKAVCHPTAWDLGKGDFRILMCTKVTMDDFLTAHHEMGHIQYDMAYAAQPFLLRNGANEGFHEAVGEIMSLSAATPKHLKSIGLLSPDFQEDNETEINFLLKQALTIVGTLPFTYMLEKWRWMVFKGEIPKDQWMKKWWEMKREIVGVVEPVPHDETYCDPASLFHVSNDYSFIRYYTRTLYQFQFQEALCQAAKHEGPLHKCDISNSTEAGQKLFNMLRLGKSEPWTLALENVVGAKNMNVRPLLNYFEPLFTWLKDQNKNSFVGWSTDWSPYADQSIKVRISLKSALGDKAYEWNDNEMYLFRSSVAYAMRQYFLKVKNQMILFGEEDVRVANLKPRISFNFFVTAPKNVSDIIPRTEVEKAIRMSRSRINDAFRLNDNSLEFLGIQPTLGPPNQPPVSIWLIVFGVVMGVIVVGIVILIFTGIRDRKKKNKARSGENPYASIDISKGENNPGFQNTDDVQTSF

ACE2 [4] = biological target: T1, ACE2; conditions: ACE2 inhibitor; cited from earlier work
SARS-CoV-2 PsV = type: cell-based; conditions: 0.5 nM ACE2 dose
VSVG PsV = type: cell-based, vesicular stomatitis virus
SARS-CoV PsV = type: cell-based

CCCCCCCCCCCC(=O)N[C@H](C(=O)N[C@H](C(=O)N[C@H](C(=O)NCC(=O)N[C@@H](CCC(=O)O)C(=O)N[C@@H](CCC(=O)O)C(N)=O)C(C)C)C(C)C)C(C)C [Filler] (Lauroyl-VVVGEE-NH2)
critical micelle concentration (CMC) [1]: around 2.9 μM
impact on ACE2 activity / initial velocity [2]: slight impact on ACE2 activity

non-cleavable peptidic ACE2 inhibitor GDYSHCSPLRYYPWWKCTYPDPEGGG (SEQ ID NO: 5/16) [DX600]
Kd (ACE2 [3]): 10.1 nM
Ki (ACE2 [4]): 2.8 nM

ACE2: Recombinant human angiotensin-converting enzyme 2 (ACE2) protein (carrier-free), R&D Systems
incubation time at which inhibition becomes identical to / indistinguishable from empty filaments (SARS-CoV-2 PsV): ≤ 6 h
VSVG PsV infection inhibition (dose-dependent strong inhibition trend) (VSVG PsV): not observed
SARS-CoV PsV infection inhibition (SARS-CoV PsV): strongly inhibited
